# Data: US8048877B2, “Guanidine derivatives and their medical use” (Neurosearch A/S, priority 2006, dated 2011)
# Structures can show the parent of a compound that is named as a salt.
# Columns and labels:
# hSK3 channels = target: T1, hSK3 channels (Homo sapiens, UniProt Q9UGI6); assay: whole-cell patch-clamp recording of SK3 current in HEK293 cells expressing hSK3 channels; type: cell-based; conditions: current at −75 mV, free Ca2+ 0.3-0.4 μM, room temperature, read-out: Kd value (concentration required for decreasing the baseline current to 50% of the initial current)
# T1 construct: expressed in transfected cells; host or cells: HEK293
# Procedure: The ionic current through small-conductance Ca^2+-activated K^+ channels (SK channels, subtype 3) was recorded using the whole-cell configuration of the patch-clamp technique.
# HEK293 tissue culture cells expressing hSK3 channels were grown in DMEM (Dulbecco's Modified Eagle Medium) supplemented with 10% FCS (foetal calf serum) at 37° C. in 5% CO2. At 60-80% confluency, cells were harvested by trypsin treatment and seeded on cover slips.
# Cells plated on coverslips were placed in a 15 μl perfusion chamber (flowrate ˜1 ml/min) mounted on an inverted microscope placed on a vibration-free table in a grounded Faraday cage. The experiments were performed at room temperature (20-22° C.). […] Data were stored directly on the hard-disk and analysed by IGOR software (Wavemetrics, Lake Oswega, Oreg., USA).
# The whole-cell configuration of the patch-clamp technique was applied. […] Cell capacitance was electronically compensated and the resistance between the pipette and the cell interior (the series resistance, Rs) was measured and compensated for. […]
# The intracellular (pipette) solution contained: 154 mM KCl, 10 mM HEPES, 10 mM EGTA. Concentrations of CaCl2 and MgCl2 needed to obtain the desired free concentrations of Ca^2+ (0.3-0.4 μM, Mg^2+ always 1 mM) were calculated by EqCal software (Cambridge, UK) and added. […]
SMILES,melting point [°C],Kd (hSK3 channels) [nM]
"N=C1N(Cc2ccc(F)c(F)c2)Cc2ccccc2N1Cc1ccc(F)c(F)c1 (as salt: salt) [Compound 4, 1,3-Bis-(3,4-difluorobenzyl)-3,4-dihydro-1H-quinazolin-2-ylideneamine]",215 to 218,–
"COc1ccc(OC(F)(F)F)cc1CN1CCN(Cc2cc(OC(F)(F)F)ccc2OC)C1=N [Compound 15, 1,3-Bis-(2-methoxy-5-trifluoromethoxybenzyl)imidazolidin-2-ylideneamine]",–,< 1000
"N=C1N(Cc2ccc(F)c(F)c2)[C@@H]2CCCC[C@H]2N1Cc1ccc(F)c(F)c1 (racemic) (as salt: salt) [Compound 5, (±)-trans-1,3-Bis-(3,4-difluoro-benzyl)octahydro-benzoimidazol-2-ylideneamine]",238 to 240,–
"N=C1N(Cc2ccc(F)c(F)c2)CCCN1Cc1ccc(F)c(F)c1 [Compound 7, 1,3-Bis-(3,4-difluorobenzyl)tetrahydropyrimidin-2-ylideneamine]",–,< 1000
"N=C1N(Cc2cc(F)c(F)cc2Br)Cc2ccccc2N1Cc1cc(F)c(F)cc1Br (as salt: salt) [Compound 9, 1,3-Bis-(2-bromo-4,5-difluorobenzyl)-3,4-dihydro-1H-quinazolin-2-ylideneamine]",220 to 224,–
